Common to all, as to assay type: cell-based
The test system of one assay is HIV. Kind of assay: HIV challenge of stable Molt4/8 cell lines, P24 production (SAVA). The conditions noted are these: for % inhibition of HIV replication: Table 19, U5 ribozyme from RNA polymerase III promoters, P24 at 7 days, vs ALNL-6 control. Here is the method:
Promoter efficacy was measured by using them to express a ribozyme against the US region of HIV and measuring the resulting anti-HIV effect for each promoter. […] The HIV protease inhibitor, indinavir, was included in these experiments as a positive control at 10 and 100 nM concentrations.

Assay [1] concerns 5′TK cells (HeLa with HCV IRES-tk reporter). Description: Gancyclovir sensitivity of 5′TK reporter cells, surviving colonies. The arrangement: key to number of surviving cell colonies: TMTC = too many colonies to count. The source says:
For gene identification, this reporter is stably transfected into HeLa cells (where HCV IRES activity has already been documented using hygromycin selection (FIG. 23). This “parental” cell population is called 5′TK.
Expression of the tk gene in these cells via the IRES confers sensitivity to the toxic effects of gancyclovir. Introduction of a ribozyme that inhibits expression of a cellular factor involved in IRES translation would result in a loss of tk expression and this cell would become gancyclovir resistant (see FIG. 23). As a control, a similar reporter plasmid was constructed without the IRES (or with a non-functioning mutant IRES), to verify that tk expression is IRES-dependent. To facilitate selection of the correct ribozyme from the library, it was necessary to start with a concentration of gancyclovir that effectively kills all parental cells, thus assuring a low background of false positives. To this end, 7.5×10^5 5′TK cells were exposed to various concentrations of gancyclovir and the number of surviving cell colonies is shown below. Due to anticipated heterogeneity in the original parental population, individual cell clones of the parental were also isolated and gancyclovir sensitivity was assayed as shown below in Table 12.

Assay [2] deals with 2008 cell line (ovarian cell line sensitive to cisplatin). Kind of assay: Cisplatin selection of vector or library transfected cells, surviving colonies. Here is the method:
Approximately 2×10^7 of the 2008 cell line (ovarian cell line sensitive to cisplatin) and UMscc10b were transfected by 200 μg of pAAV6Clib described in Example 2(A) using lipofectamine. The transfection efficiencies were from 27% to 35% by eGFP expression.
After transfection, about 5.4×10^6 to 7×10^6 of cells (1.5 to 1.9 of library equivalent ) containing library DNA were selected by multiple rounds of addition of cisplatin at increasing concentrations. […] Colonies derived from the library transfected cells growing out of high concentration of cisplatin were expanded.
To confirm the library transfected cells after selection are indeed more resistant to cisplatin than either the vector transfected or parental 2008 cells, we compared the killing curve of the cisplatin of there three cell population. […] Ribozyme sequences were rescued from the library transfected cells which were selected at high concentration were rescued by PCR by the method described in Example D and identified by sequencing. After confirming the function of ribozymes rescued from the resistant cells, we will identify genes controlling cisplatin sensitivity again based on the sequence of the ribozyme binding arms and GUC by the methods described in the next example.

Another assay relates to A549 and HeLa cells. Description: Puromycin selection of transiently transfected cells. The note with it: cells receiving puromycin resistance genes (pPur); 600ng/ml puromycin. The method, then:
Drug selection is typically used to obtain cells which stably express the drug resistance gene; however, we have found conditions under which cells transfected with puromycin-expressing vectors can survive for several days in the presence of puromycin, even when not stably transfected or transduced. During the same time period, untransfected cells are rapidly killed by the drug. Plasmids encoding puromycin resistance genes (pPur) were transfected into A549 and HeLa cells, and 600ng/ml puromycin was added to the culture medium. As a control, cells were transfected with plasmids lacking puromycin resistance genes (AMFT). The number of cells was determined at 1-day intervals following transfection. Cells lacking the puromycin resistance gene were killed within 2 or 3 days after the addition of puromycin, whereas cells receiving puromycin resistance genes survived as long as 7-9 days (FIG. 27). Target validation could therefore be performed on these transiently transfected cells between 2-9 days following puromycin selection. Other drugs which rapidly kill cells can also be employed in this type of experiment.

In another assay the test system is melanoma cell line G-361. Description: TRAIL killing of G-361 cells. The note with it: 200 ng/ml TRAIL; 2 days after adding; most efficient condition. Here is the method:
Selection of ribozymes (from the Rz library) capable of blocking TRAIL-induced apoptosis was investigated in the melanoma cell line G-361 (ATCC #CRL-1424). To determine their initial sensitivity to TRAIL, G-361 cells were plated at a density of 1×10^4 cells/cm^2. Recombinant TRAIL (Alexis Biochemicals) was applied at concentrations between 10 and 200 ng/ml for anywhere from 16 hours to 2 days.

Where two headings read alike, the source gives them in different places.

Alanine: the results for the “% inhibition of HIV replication” value with HIV (MOI 0.02), with HIV (MOI 0.04) and in the assay with HIV (MOI 0.08) were 75.7 ± 21%, 71.0 ± 23% and 8.7 ± 24%, respectively.

Regarding Serine, the results for the “% inhibition of HIV replication” value in the assay on HIV (MOI 0.02), in the assay on HIV (MOI 0.04) and in the assay on HIV (MOI 0.08) were 96.6%, 91.8% and 82.0%, respectively.

As for `Nc1nc(O)c2ncn(COC(CO)CO)c2n1` [Gancyclovir, gancyclovir], the “number of surviving cell colonies” value in assay [1] (Clone 1, gancyclovir 20 μM) was found to be 20; in assay [1] (Clone 1, gancyclovir 40 μM), 4; in assay [1] (Clone 1, gancyclovir 80 μM), 0; in assay [1] (Clone 2, gancyclovir 20 μM), 0; in assay [1] (Clone 2, gancyclovir 40 μM), 0; in assay [1] (Clone 2, gancyclovir 80 μM), 0. In addition, the “number of surviving cell colonies” value is listed as 0 in assay [1] (Clone 3, gancyclovir 20 μM); 0 in assay [1] (Clone 3, gancyclovir 40 μM); 0 in assay [1] (Clone 3, gancyclovir 80 μM); “TMTC” in assay [1] (Clone 4, gancyclovir 20 μM); “TMTC” in assay [1] (Clone 4, gancyclovir 40 μM); 60 in assay [1] (Clone 4, gancyclovir 80 μM). The “number of surviving cell colonies” value in assay [1] (Clone 5, gancyclovir 20 μM) turned out to be 0; in assay [1] (Clone 5, gancyclovir 40 μM), 0; in assay [1] (Clone 5, gancyclovir 80 μM), 0; in assay [1] (Parental 5′TK, gancyclovir 4 μM, 7.5×10^5 cells exposed) it was 109; in assay [1] (Parental 5′TK, gancyclovir 8 μM) it was 38; in assay [1] (Parental 5′TK, gancyclovir 12 μM), 17. Also, the “number of surviving cell colonies” value amounted to 15 in assay [1] (Parental 5′TK, gancyclovir 16 μM); 9 in assay [1] (Parental 5′TK, gancyclovir 20 μM); 7 in assay [1] (Parental 5′TK, gancyclovir 40 μM); 2 in assay [1] (Parental 5′TK, gancyclovir 60 μM); 2 in assay [1] (Parental 5′TK, gancyclovir 80 μM); 1 in assay [1] (Parental 5′TK, gancyclovir 100 μM). Also, the “sensitivity to gancyclovir (in words)” value in assay [1] (individual clones #2, 3 and 5, as low as 20 μM) was “highly sensitive”.

Turning to `CC(C)(C)NC(=O)[C@@H]1CN(Cc2cccnc2)CCN1C[C@@H](O)C[C@@H](Cc1ccccc1)C(=O)N[C@H]1c2ccccc2C[C@H]1O` [indinavir], the inhibition at 0.01 µM in the assay with HIV (Human immunodeficiency virus 1, MOLT-4, Table 19, positive control at 10 nM, MOI 0.02, read-out: % inhibition of HIV replication) was determined as 94.7 ± 2.8%; with HIV (Human immunodeficiency virus 1, MOLT-4, Table 19, positive control at 10 nM, MOI 0.04, read-out: % inhibition of HIV replication) it was 85.7 ± 4%; in the assay with HIV (Human immunodeficiency virus 1, MOLT-4, Table 19, positive control at 10 nM, MOI 0.08, read-out: % inhibition of HIV replication) it was 61.6 ± 9.5%; with HIV (Human immunodeficiency virus 1, MOLT-4, Table 20, positive control at 10 nM, MOI 0.02, read-out: % inhibition (anti-HIV effect)), 81.3 ± 1.2%; with HIV (Human immunodeficiency virus 1, MOLT-4, Table 20, positive control at 10 nM, MOI 0.04, read-out: % inhibition (anti-HIV effect)), 70.9 ± 2.1%; in the assay on HIV (Human immunodeficiency virus 1, MOLT-4, Table 20, positive control at 10 nM, MOI 0.08, read-out: % inhibition (anti-HIV effect)) it was 57.8 ± 4.8%. The inhibition at 0.01 µM was found to be 74.8 ± 1.5% in the assay on HIV (Human immunodeficiency virus 1, MOLT-4, Table 22, 10 nM, MOI 0.02, read-out: % inhibition); 73.9 ± 3.6% with HIV (Human immunodeficiency virus 1, MOLT-4, Table 22, 10 nM, MOI 0.04, read-out: % inhibition); 68.8 ± 4.5% in the assay with HIV (Human immunodeficiency virus 1, MOLT-4, Table 22, 10 nM, MOI 0.08, read-out: % inhibition). Further, the inhibition at 0.1 µM is 97.8 ± 1.7% in the assay with HIV (Human immunodeficiency virus 1, MOLT-4, Table 19, positive control at 100 nM, MOI 0.02, read-out: % inhibition of HIV replication); 95.9 ± 0.2% in the assay on HIV (Human immunodeficiency virus 1, MOLT-4, Table 19, positive control at 100 nM, MOI 0.04, read-out: % inhibition of HIV replication); 89.5 ± 1.2% in the assay on HIV (Human immunodeficiency virus 1, MOLT-4, Table 19, positive control at 100 nM, MOI 0.08, read-out: % inhibition of HIV replication); 89.1 ± 0.5% with HIV (Human immunodeficiency virus 1, MOLT-4, Table 20, positive control at 100 nM, MOI 0.02, read-out: % inhibition (anti-HIV effect)); 86.1 ± 1.9% in the assay with HIV (Human immunodeficiency virus 1, MOLT-4, Table 20, positive control at 100 nM, MOI 0.04, read-out: % inhibition (anti-HIV effect)); 82 ± 1.2% in the assay with HIV (Human immunodeficiency virus 1, MOLT-4, Table 20, positive control at 100 nM, MOI 0.08, read-out: % inhibition (anti-HIV effect)). Moreover, the inhibition at 0.1 µM in the assay on HIV (Human immunodeficiency virus 1, MOLT-4, Table 22, 100 nM, MOI 0.02, read-out: % inhibition) is 98.5 ± 0.5%; with HIV (Human immunodeficiency virus 1, MOLT-4, Table 22, 100 nM, MOI 0.04, read-out: % inhibition), 95.5 ± 0.6%; with HIV (Human immunodeficiency virus 1, MOLT-4, Table 22, 100 nM, MOI 0.08, read-out: % inhibition) it was 93.3 ± 0.4%.

Turning to `N.N.[Cl][Pt][Cl]` [cisplatin], the “% of surviving colonies” value is 18.4% in assay [2] (Library transfected cells (pAAV6Clib), cisplatin 4 uM, after multiple rounds of selection); 10.3% in assay [2] (Library transfected cells, cisplatin 5 uM); 5.2% in assay [2] (Library transfected cells, cisplatin 6 uM); 2.3% in assay [2] (Library transfected cells, cisplatin 7 uM); 0% in assay [2] (Library transfected cells, cisplatin 8 uM); 2.14% in assay [2] (vector transfected cells, cisplatin 4 uM, after multiple rounds of selection). In addition, the “% of surviving colonies” value is 0.97% in assay [2] (vector transfected cells, cisplatin 5 uM); 0.79% in assay [2] (vector transfected cells, cisplatin 6 uM); 0% in assay [2] (vector transfected cells, cisplatin 7 uM); 0% in assay [2] (vector transfected cells, cisplatin 8 uM).

As for `COc1ccc(C[C@H](N)C(=O)N[C@H]2[C@@H](O)[C@H](n3cnc4c(N(C)C)ncnc43)O[C@@H]2CO)cc1` [puromycin], in the assay on A549 and HeLa cells, the “survival time in the presence of puromycin” value was in the range of 7 to 9 days.

B1: TRAIL: Recombinant TRAIL (Alexis Biochemicals), death receptor ligand (protein, UniProt P50591 1-281, looked up)
Tumor necrosis factor ligand …: MAMMEVQGGPSLGQTCVLIVIFTVLLQSLCVAVTYVYFTNELKQMQDKYSKSGIACFLKEDDSYWDPNDEESMNSPCWQVKWQLRQLVRKMILRTSEETISTVQEKQQNISPLVRERGPQRVAAHITGTRGRSNTLSSPNSKNEKALGRKINSWESSRSGHSFLSNLHLRNGELVIHEKGFYYIYSQTYFRFQEEIKENTKNDKQMVQYIYKYTSYPDPILLMKSARNSCWSKDAEYGLYSIYQGGIFELKENDRIFVSVTNEHLIDMDHEASFFGAFLVG
For B1, in the assay on melanoma cell line G-361, the “killing of G-361 cells” value is listed as below 100%.

The inhibition is how much of the control response was suppressed.

(Values after US20040259079A1, “Substantially complete ribozyme libraries” (priority 1998, published 2004).)
